Reference: patent publication EP1421935A1 (Casini, Angela, priority 2002, dated 2004)
≈ marks a conversion by molar mass, not a printed value. Marks after values point to notes of the source that are not given here.

Key:
[1] = chloroform-buffer partition coefficient; format: physicochemical; settings: pH 7.4 phosphate buffer, B compounds as sodium salts
Description: The determination of partition coefficient is performed as follows. Chloroform - buffer partition coefficients are obtained by equilibrating the test compound between chloroform and 0.1-ionic strength pH 7.4 phosphate buffer. The concentration in each phase is determined by UV spectrophotometry or HPLC.

[2] = system: IOP of normotensive rabbits; assay: tonometric measurement of IOP after topical administration; format: in vivo, New Zealand albino rabbits; settings: for Δ IOP ± SE (mm Hg) 30 min: 30 min after one drop (50 µL) of 2% solution; for Δ IOP ± SE (mm Hg) 30 min / Δ IOP ± SE (mm Hg) 60 min / Δ IOP ± SE (mm Hg) 90 min: topical, IOP control eye - IOP treated eye (N = 3); for Δ IOP ± SE (mm Hg) 60 min: 60 min after one drop (50 µL) of 2% solution; for Δ IOP ± SE (mm Hg) 90 min: 90 min after one drop (50 µL) of 2% solution; for IOP returns to baseline values after ... from administration: topical 2% solution (Fig. 2)
Description: Tonometric measurement of IOP are performed as follows.
Adult male New Zealand albino rabbits weighing 3-3.5 kg are used in the experiments. Three animals are used for each inhibitor studied. The experimental procedures conform to the Association for Research in Vision and Ophthalmology Resolution on the use of animals. The rabbits are kept in individual cages with food and water provided ad libitum and maintained on a 12 h light/dark cycle in a temperature controlled room, at 22-26 °C. Solutions and suspensions of inhibitors (2 %, by weight, as hydrochlorides, or sodium carboxylates) are made in distilled deionized water. The pH of these solutions is in the range of 5.5 - 7.4.
IOP is measured using a Digilab 30R pneumatonometer (BioRad, Cambridge, MA, USA) as described by Maren et al. (Maren et al., Exp. Eye Res. 55:73-79, 1992; Brechue et al., Invest. Ophthalmol. Vis. Sci. 34:2581-2587,1993). The pressure readings are matched with two-point standard pressure measurements at least twice each day using a Digilab Calibration verifier. All IOP measurements are done by the same investigator with the same tonometer. One drop of 0.2 % oxybuprocaine hydrochloride (novesine, Sandoz) diluted 1:1 with saline is instilled in each eye immediately before each set of pressure measurements. IOP is measured three times at each time interval, and the means reported. IOP is measured first immediately before drug administration, then at 30 min after the instillation of the pharmacological agent, and then each 30 minutes for a period of 4-6 hours. For all IOP experiments drug is administered to only one eye, leaving the contralateral eye as an untreated control. The ocular hypotensive activity is expressed as the average difference in IOP between the treated and control eye, in this way minimizing the diurnal, seasonal and inter-individual variations commonly observed in the rabbit (Id.). All data are expressed as mean ± SE. Ocular hypertension is elicited in the right eye of albino rabbits by the injection of α-chymotrypsin (from Sigma) as described by Sugrue et al. (Sugrue et al., Br. J. Pharmacol. 99:59-64, 1990). The IOP of operated animals is checked after approximately four weeks, and animals with an elevated pressure of 30-36 mm Hg are used at least one month after the injection of α-chymotrypsin.
In vivo IOP lowering experiments are done in normotensive and glaucomatous rabbits, with many of the new compounds reported here, due to their strong CA II and CA IV inhibitory properties, such as B7, B10-B13, B15, B18-B22, B25, B27, B28, B33, B37, and A40. […] Measurements are at 30, 60 and 90 min after administration Table 3.

[3] = drug distribution in ocular fluids and tissues after topical administration; format: in vivo, albino rabbits; settings: mean ± standard deviation (n= 3)
[4] = solubility in aqueous buffer (UV of saturated solution); settings: 25 °C, pH 7.4, aqueous buffer, thermodynamic from solid
Description: The determination of solubility in aqueous buffer is performed as follows. […] The UV absorption maximum of each compound is determined (with a Cary 3 spectrophotometer) eventually diluting the solution (with MeOH) as necessary. […] The obtained saturated solution is filtered in order to remove solid compound through a Millipore 0.45 µm filter and scanned by UV at the wavelength of the absorption maximum previously determined. Total solubility is determined by the relationship: C' = A'C/A, where C = concentration of standard solution (mg/mL); A = absorbance of standard solution; A' = absorbance of the saturated solution; C' = concentration of the saturated solution (mg/mL).

hCA I = hCA I (Homo sapiens, UniProt P00915); assay: CA inhibition, esterase method (4-nitrophenylacetate hydrolysis)
Description: (§1) Stock solutions of inhibitor (1 mM) are prepared in distilled-deionized water with 10-20% (v/v) DMSO (which is not inhibitory at these concentrations) and dilutions up to 0.01 nM are done thereafter with distilled-deionized water. Inhibitor and enzyme solutions are preincubated together for 10 min at room temperature prior to assay, in order to allow for the formation of the E-I complex.

hCA II = hCA II (Homo sapiens, UniProt P00918); assay: as above
Description: as §1

bCA IV = target: T1, bCA IV (Bos taurus, UniProt Q95323); assay: as above
T1 sequence (Q95323 19-284): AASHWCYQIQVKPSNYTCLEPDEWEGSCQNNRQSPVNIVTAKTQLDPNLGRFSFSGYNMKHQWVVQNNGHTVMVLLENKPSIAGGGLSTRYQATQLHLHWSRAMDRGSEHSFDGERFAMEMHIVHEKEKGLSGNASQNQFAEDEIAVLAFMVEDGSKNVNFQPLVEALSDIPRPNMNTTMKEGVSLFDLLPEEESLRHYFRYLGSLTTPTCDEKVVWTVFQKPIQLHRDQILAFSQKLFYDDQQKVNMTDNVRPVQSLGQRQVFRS
Description: as §1

[5] = transcorneal penetration of drugs (in vitro corneal permeability); settings: rate constant of transfer across excised rabbit cornea, pH 7.4; for kin x 10^3 (hr^-1) No epithelium: denuded epithelium; for kin x 10^3 (hr^-1) Cornea intact: intact epithelium
Description: The determination of transcorneal penetration of drugs is performed as follows. […] Excised rabbit corneas with either intact or denuded epithelium are used in these experiments. The pH is 7.4 and exposed area is 1.2 cm^2. Concentrations of drug of 40 - 2000 µM are placed in the epithelial chamber and samples of fluid are collected from the endothelial chamber at different intervals, up to 4 hr.

[6] = 1h after corneal application of one drop (50 µL) of 2% solution
[7] = 2h after corneal application of one drop (50 µL) of 2% solution

Chain of hCA I (P00915 whole entry): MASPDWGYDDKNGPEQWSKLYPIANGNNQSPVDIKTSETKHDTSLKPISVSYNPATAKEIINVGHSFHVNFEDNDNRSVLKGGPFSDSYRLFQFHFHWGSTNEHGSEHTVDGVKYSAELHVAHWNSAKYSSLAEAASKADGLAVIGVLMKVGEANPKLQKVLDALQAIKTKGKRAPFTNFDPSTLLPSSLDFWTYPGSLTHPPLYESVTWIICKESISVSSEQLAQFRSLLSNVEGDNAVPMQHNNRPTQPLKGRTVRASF

Row | Compound | Log P [1] | Δ IOP ± SE (mm Hg) 30 min [2] [mm Hg] | Δ IOP ± SE (mm Hg) 60 min [2] [mm Hg] | Δ IOP ± SE (mm Hg) 90 min [2] [mm Hg] | Drug concentration (µM) Aqueous humor [3, 6] [µM] | Drug concentration (µM) Ciliary process [3, 6] [µM] | Drug concentration (µM) Cornea [3, 6] [µM] | Drug concentration (µM) Aqueous humor [3, 7] [µM] | Drug concentration (µM) Ciliary process [3, 7] [µM] | Drug concentration (µM) Cornea [3, 7] [µM] | solubility ([4]; phosphate buffer) [mM] | Ki (hCA I) [nM] | Ki (hCA II) [nM] | Ki (bCA IV) [nM] | kin x 10^3 (hr^-1) No epithelium [5] [hr^-1] | kin x 10^3 (hr^-1) Cornea intact [5] [hr^-1] | IOP returns to baseline values after ... from administration [2] [h] | further results
1 | NS(=O)(=O)c1ccc(CNC(=S)Nc2ccc(C(=O)O)cc2)cc1 [B13] | 1.428 | 1.2±0.15 | 7.0±0.15 | 10.3±0.20 | 204 ± 13 | 50 ± 7 | 123 ± 9 | 62 ± 4 | 23 ± 2 | 76 ± 5 | 46 (≈ 16.8 mg/mL) | 47 | 9 | 21 | 9.1 | 3.3 | – | –
2 | NS(=O)(=O)c1ccc(CNC(=S)NC(CO)C(=O)O)cc1 (stereo not shown) [B19] | 1.662 | – | – | – | – | – | – | – | – | – | 70 (≈ 23.3 mg/mL) | 23 | 2 | 9 | 8.5 | 3.3 | 5 to 6 | –
3 | NS(=O)(=O)c1ccc(CNC(=S)NC(C(=O)O)C(O)c2ccccc2)cc1 (stereo not shown) [B20] | 2.518 | – | – | – | 205 ± 12 | 49 ± 5 | 133 ± 10 | 53 ± 5 | 15 ± 1 | 70 ± 9 | 51 (≈ 20.9 mg/mL) | 20 | 1 | 7 | 10.7 | 4.9 | 5 to 6 | –
4 | NS(=O)(=O)c1ccc(CNC(=S)NC(CS)C(=O)O)cc1 (stereo not shown) [B22] | 0.124 | – | – | – | – | – | – | – | – | – | 65 (≈ 22.7 mg/mL) | 21 | 3 | 8 | 0.9 | 0.4 | – | –
5 | NS(=O)(=O)c1ccc(CNC(=S)NCCC(=O)NC(Cc2cnc[nH]2)C(=O)O)cc1 (stereo not shown) [B40] | 0.933 | – | – | – | – | – | – | – | – | – | – | 22 | 4 | 9 | 5.9 | 2.8 | – | solubility at 3 h [4]: 57 mM (≈ 25.9 mg/mL)
6 | CCN[C@H]1C[C@H](C)S(=O)(=O)c2sc(S(N)(=O)=O)cc21 [Dorzolamide, dorzolamide, reference compound] | 2.0^e | 2.2±0.15 | 4.1±0.15 | 2.7±0.10 | – | – | – | – | – | – | – | – | – | – | 5.2 | 3.0 | – | Δ IOP ± SE (mm Hg) 30 min ([2]; listed as dorzolamide): 2.2 mm Hg; Δ IOP ± SE (mm Hg) 60 min ([2]; listed as dorzolamide): 4.1 mm Hg; solubility at 3 h ([4]; phosphate buffer): 60 mM (≈ 19.5 mg/mL)
